In brackets after ≈: the same amount, converted by molar mass.
Key:
Experiment in all cases: ≥ marks a high value that may be exact or a test limit, other limits are often not marked, values filed in µg/mL are converted to µM
[1] = test system: Staphylococcus aureus KCTC 1621
[2] = test system: Pseudomonas aeruginosa KCTC 1637
[3] = test system: Bacillus subtilis KCTC 1918
[4] = test system: Salmonella typhimurium KCTC 1926
[5] = test system: Aspergillus fumigatus KCTC 4165
[6] = test system: Streptococcus pyogenes KCTC 3096
[7] = test system: Candida albicans TIMM 1768
[8] = test system: Escherichia coli KCTC 1682
[9] = test system: Streptococcus mutans comD
[10] = test system: Streptococcus sanguinis NY101
[11] = test system: Streptococcus mutans UA159
[12] = test system: Streptococcus gordonii DL1

Row | MIC [1] [µM] | MIC [2] [µM] | MIC [3] [µM] | MIC [4] [µM] | MIC [5] [µM] | MIC [6] [µM] | MIC [7] [µM] | MIC [8] [µM] | MIC [9] [µM] | MIC [10] [µM] | MIC [11] [µM] | MIC [12] [µM] | Compound
1 | 6.25 (≈ 13.4 µg/mL) | 3.12 (≈ 6.7 µg/mL) | 6.25 (≈ 13.4 µg/mL) | 6.25 (≈ 13.4 µg/mL) | 25 (≈ 53.7 µg/mL) | 12.5 (≈ 26.8 µg/mL) | 25 (≈ 53.7 µg/mL) | 6.25 (≈ 13.4 µg/mL) |  |  |  |  | CC[C@H](C)[C@H](NC(=O)[C@H](CCCCN)NC(=O)[C@H](CCCCN)NC(=O)[C@H](CC(C)C)NC(=O)[C@H](CCCCN)NC(=O)[C@H](CCC(=O)O)NC(=O)CN)C(=O)NCC(=O)N[C@@H](CCC(N)=O)C(=O)N[C@@H](CCCCN)C(=O)N[C@H](C(=O)N[C@@H](CCCCN)C(=O)N[C@@H](CC(N)=O)C(=O)N[C@@H](Cc1ccccc1)C(=O)N[C@@H](Cc1ccccc1)C(=O)N[C@@H](CCCCN)C(=O)N[C@@H](CCCCN)C(=O)N[C@@H](CC(C)C)C(=O)O)[C@@H](C)CC [GEKLKKIGQKIKNFFKKL]
2 |  |  |  |  |  |  |  |  | 2.5 (≈ 7.54 µg/mL) | 20 (≈ 60.3 µg/mL) | 2.5 (≈ 7.54 µg/mL) | 10 (≈ 30.2 µg/mL) | CC(C)C[C@H](NC(=O)[C@H](CCCN=C(N)N)NC(=O)[C@H](Cc1ccccc1)NC(=O)[C@H](Cc1ccccc1)NC(=O)[C@@H](N)[C@@H](C)O)C(=O)N[C@@H](Cc1ccccc1)C(=O)N[C@@H](CC(N)=O)C(=O)N[C@@H](CCCN=C(N)N)C(=O)N[C@@H](CO)C(=O)NCC(=O)NCC(=O)NCC(=O)N[C@@H](Cc1ccccc1)C(=O)N[C@@H](CCCCN)C(=O)N[C@@H](CCCCN)C(=O)N[C@@H](Cc1ccccc1)C(=O)N[C@@H](Cc1c[nH]c2ccccc12)C(=O)N[C@@H](CCCCN)C(=O)N[C@@H](Cc1c[nH]c2ccccc12)C(=O)N[C@@H](Cc1ccccc1)C(=O)N[C@@H](CCCN=C(N)N)C(=O)N[C@@H](CCCN=C(N)N)C(=O)N[C@@H](Cc1ccccc1)C(=O)O [TFFRLFNRSGGGFKKFWKWFRRF]
